“Also recorded” adds a separate entry of the source. Ends that are not written are not given here.
Assays:
HIV-2 = assay: Infection of human PBLs; assay type: cell-based; settings: MBPC 10^-5 M
Method: Peripheral blood lymphocytes (PBLs) were obtained from healthy donors, stimulated with phytohemagglutinin, and cultivated in RPMI 1640 containing 10% fetal calf serum and interleukin-2 (complete medium). Samples of 6×10^6 cells/ml were either treated or not treated with the indicated MBPC at a concentration of 10^-5 M and exposed to HIV-1 or HIV-2 (100 TCID50) for 1 hour at 37° C. in the continued presence of MBPCs. After thorough washing, PBLs were cultured in complete medium with 10^-5 M of the corresponding MBPC. The state of infection was assessed by determination of RT activity (for both HIV-1 and HIV-2 isolates) and HIV-1 p24^gag measurements (Coulter kit, cut-off 10 pg/ml) in the case of HIV-1 isolates 10 days post-infection. The MBPC treatment used were as follows: 1-none; 2- [GPGRAF]8 -MLC; 3-[[…]]4 -MLC; 4- [[…]]4 -MLC (a non-HIV related MBPC) (MLC indicates a core lysine structure). The results shown in FIGS. 2A-2C are representative of three separate experiments. The nature of the viral isolates used was checked by PCR (HIV-1 versus HIV-2 isolates) and RIPA for discriminating between HIV-1 (LAI) and HIV-1 (NDK).

[1] = system: Peripheral blood lymphocytes (PBL); assay: PBL antigen and mitogen induced proliferation ([3H]thymidine incorporation); assay type: cell-based, human; settings: MBPCs 5×10^-6 M
Method: Peripheral blood lymphocytes (PBL) from 3 healthy HIV sero-negative donors were isolated from heparinized blood by the Ficoll-Hypaque technique. The culture medium was RPMI 1640 supplemented with 1% glutamine, 1% antibiotics and 10% heat inactivated fetal calf serum. Cells (10^5) were incubated in the presence of MBPCs (5×10^-6 M) with or without antigen (candidine, PPD) or mitogen (PHA). Antigen or mitogen treated cells were pulsed for eight hours with […] of [3H] thymidine. Then cells were harvested and [3H] thymidine incorporation in DNA was counted. […]

8E5 cells = assay: Toxicity in the cell fusion test (MTT assay or trypan blue exclusion); assay type: cell-based; settings: 5 × 10^-5 M; listed as [RKSIHIGPGRAFYT]4 -MLC

Substance: (RKSIHIGPGRAFYT)4 -(K)2 -K-βA-OH (also: four copies on lysine core (K)2-K-βA-OH) [MBPC.5, tetradecapeptide MBPC]
- potency for inhibition of HIV-2 infection, in words (HIV-2): less potent than [GPGRAF]8 -MLC
- [3H] Thymidine Incorporation ([1]; Donor 1, Cand1): 80000 cpm
- [3H] Thymidine Incorporation ([1]; Donor 1, Cand2): 85000 cpm
- [3H] Thymidine Incorporation ([1]; Donor 1, PPD1): 1300 cpm
- [3H] Thymidine Incorporation ([1]; Donor 1, PPD2): 2100 cpm
- [3H] Thymidine Incorporation ([1]; Donor 2, Cand1): 15000 cpm
- [3H] Thymidine Incorporation ([1]; Donor 2, Cand2): 9000 cpm
- [3H] Thymidine Incorporation ([1]; Donor 2, PHA1): 115000 cpm
- [3H] Thymidine Incorporation ([1]; Donor 2, PHA2): 111000 cpm
- [3H] Thymidine Incorporation ([1]; Donor 2, PPD1): 24000 cpm
- [3H] Thymidine Incorporation ([1]; Donor 2, PPD2): 26000 cpm
- [3H] Thymidine Incorporation ([1]; Donor 3, Cand1): 3700 cpm
- [3H] Thymidine Incorporation ([1]; Donor 3, Cand2): 1100 cpm
- [3H] Thymidine Incorporation ([1]; Donor 3, PHA1): 228000 cpm
- [3H] Thymidine Incorporation ([1]; Donor 3, PHA2): 188000 cpm
- [3H] Thymidine Incorporation ([1]; Donor 3, PPD1): 4000 cpm
- [3H] Thymidine Incorporation ([1]; Donor 3, PPD2): 2400 cpm
- Toxicity (8E5 cells): Toxic; also recorded: induced some toxicity
